# According to patent US20260083864A1, “CONTRAST AGENTS FOR USE IN DIAGNOSTIC COMPUTED TOMOGRAPHY IMAGING” (Bayer Aktiengesellschaft, priority 2022, published 2026):
# What was measured:
# [1] = Water solubility in aqueous buffer
# Description: The solid compounds were added stepwise to the buffer solution. More substance is added once all the suspended material is dissolved until an equilibrium between undissolved and dissolved substance is reached. The suspension was mixed using a shaker (Heidolph Reax 2000) and treated 5 min in an ultrasound bath (Bandelin, Sonorex Super RK255H).
# [2] = Relaxivity measurements at 1.41 T in water; assay type: physicochemical; conditions: 37° C., normalized to Gd
# Description: (§1) Relaxivity measurements at 1.41 T were performed using a MiniSpec mq60 spectrometer (Bruker Analytik, Karlsruhe, Germany) operating at a resonance frequency of 60 MHz and a temperature of 37° C. The T1 relaxation times were determined using the standard inversion recovery (IR) method with a fixed relaxation delay of at least 5×T1. The variable inversion time (TI) was calculated automatically by the standard software of the MiniSpec mq60 (8 steps). The T2 measurements were performed by using a Carr-Purcell-Meiboom-Gill (CPMG) pulse sequence, applying a relaxation delay of at least 5×T1.
# Each relaxivity measurement was performed using three different Gd concentrations (3 concentrations between 0.05 and 2 mM). […] Human plasma preparation: For each experiment fresh blood was taken from a volunteer using 10 mL citrate-tubes (Sarstedt S-Monovette 02.1067.001, 10 mL, Citrate). The 10 mL citrate-tubes were carefully inverted 10 times to mix blood and anticoagulant and centrifuged for 15 min at 1811 g at RT (Eppendorf, Centrifuge 5810R).
# (§2) The relaxivities n (where i=1, 2) were calculated based on the measured relaxation rates Ri in water and plasma: […]
# [3] = Relaxivity measurements at 1.41 T in human plasma; assay type: physicochemical; conditions: 37° C., normalized to Gd
# Description: as §1, with “The” for “Relaxivity measurements at 1.41 T were performed using a MiniSpec mq60 spectrometer (Bruker Analytik, Karlsruhe, Germany) operating at a resonance frequency of 60 MHz and a temperature of 37° C. The”
# Each relaxivity measurement was performed using three different Gd concentrations (3 concentrations between 0.05 and 2 mM).
# as §2
# [4] = Partition coefficient (log P butanol/buffer); assay type: physicochemical
# [5] = system: freshly isolated rat hepatocytes; assay: Uptake into freshly isolated rat hepatocytes; conditions: for Uptake rat hepatocytes: 100 μmol Gd/L, 10 min, 37° C., relative to RC1 (Gd-EOB-DTPA); for Inhibition Rifampicine: rat hepatocyte uptake, test item and Rifampicine 1:1, each 100 μM
# Description: After incubation the adherent hepatocytes were washed once with 37° C. Hepes carbonate transport buffer (500 μL/well). The test items and RC1 were prepared from stock solutions (180 to 500 mM concentration) in Hepes carbonate transport buffer at pH 7.4 to reach a final concentration of 100 μmol Gd/L. The specific uptake of the test item or RC1 into rat hepatocytes via OATP1B1 and OATP1B3 was challenged using a known OATP1B1/1B3 inhibitor (Rifampicine, Fa. Sigma R3501, test item and inhibitor 1:1 each 100 μM final concentration). The prepared rat hepatocyte plates were incubated with test solutions (500 μL/well) at 37° C. for 10 min using a thermoshaker (Fa. Grant Bio, PHMP). Triplicates were performed for each test item. After incubating the cells were washed once with cold PBS buffer (Fa. Gibco, Dulbeccos PBS (+)). After washing the intact hepatocytes were lysed by addition of 500 μL cold 0.01% Triton-X 100 in Millipore water for 1 h. […] As a reference standard RC1 is used in the same well plate. The hepatocyte uptake of the test compound is calculated relative to RC1 (resulting in the unit % of RC1).
# [6] = aqueous buffer 10 mM Tris-HCl, pH 7.4, 20° C.
# [7] = 1-butanol / 50 mM Tris-HCl, pH 7.4, room temperature
SMILES,"Solubility [1, 6] [mM]",r1 water [2] [L/mmol/s],r1 human plasma [3] [L/mmol/s],"Log P (partition coefficient butanol/buffer) [4, 7]",Uptake rat hepatocytes [5],Inhibition Rifampicine [5] [% inhibition],Solubility ([1]; pH 7.4) [mM],Log P (partition coefficient butanol/buffer) ([4]; pH 7.4)
"CCOCCOCCOc1ccc(CC(C(=O)O)N2CCN(C(CCO)C(=O)[O-])CCN(C(CCO)C(=O)[O-])CCN(C(CCO)C(=O)[O-])CC2)cc1.[Gd+3] (stereo not shown) [Example 37, gadolinium-2,2′-{4-[1-carboxy-2-{4-[2-(2-ethoxyethoxy)ethoxy]phenyl}ethyl]-10-[1-carboxylato-3-hydroxypropyl]-1,4,7,10-tetraazacyclododecane-1,7-diyl}bis(4-hydroxybutanoate)]",18,6.4,8.4,−1.16,26 % of RC1,37,–,–
"CCOCCOCCOc1ccc(CC(C(=O)O)N2CCN(CC(=O)[O-])CCN(C(C)C(=O)[O-])CCN(CC(=O)[O-])CC2)cc1.[Gd+3] (single isomer, unassigned) [Example 5, gadolinium 2-[7-(1-carboxy-2-{4-[2-(2-ethoxyethoxy)ethoxy]phenyl}ethyl)-4,10-bis(carboxylatomethyl)-1,4,7,10-tetraazacyclododecan-1-yl]propanoate]",>59,4.7,6.9,−1.52,28 % of RC1,92,–,–
"CCOCCOCCOc1ccc(CCC[C@@H](C(=O)O)N2CCN(C(CCO)C(=O)[O-])CCN(C(CCO)C(=O)[O-])CCN(C(CCO)C(=O)[O-])CC2)cc1.[Gd+3] (mixture of isomers) [Example 36, gadolinium-2,2′-{4-[(1S)-1-carboxy-4-{4-[2-(2-ethoxyethoxy)ethoxy]phenyl}butyl]-10-[1-carboxylato-3-hydroxypropyl]-1,4,7,10-tetraazacyclododecane-1,7-diyl}bis(4-hydroxybutanoate)]",–,6.1,8.5,–,–,–,85,−1.08
